For the assay, the system named is yeast cells of the strain RPY10. Description: Transformation rate of yeast cells incubated with plasmid YEP24, with and without auxiliary agent. Format: cell-based, Saccharomyces cerevisiae. As to conditions: 5 μl chloroquine (100 mM solution) in 1 ml 1M saccharose pH 3.3, 10 μg YEP24, 24 h at 24° C., without chloroquine 0.8. On the procedure:
A test method for the quantification of the uptake and the endocytosis transfer was made as follows. […] cells from the logarithmic growth phase of the strain RPY10 (Matα, leu2-3, ura3, his4 ade6 (4×10^7−7×10^7 cells per ml) (Piper, R. C., Whitters, E. A., Stevens, T. H. (1994) Yeast VpsS4p is a Sec 1p-like protein required for the consumption of vacuolar targeted, post-Golgi vesicles. Eur. J. Cell Biol. 65:305-318) were incubated for 24 h with 10 μg of the purified plasmid YEP24 (see: D. Bothstein et al., 1979, Gene 8:17-24), with and without auxiliary agent. The structure of the plasmid is shown in FIG. 1.
Prior to the incubation, the cells were washed with the plasmid with at least twice the same volume of H2O and taken up in 1 ml 1M saccharose (pH 3.3, high concentrations of fermentable sugar), re-suspended with the pipette tip and brought in one 10 ml each falcon tube. […] Both were incubated for 5 min at room temperature.
Then 10 μg DNA from the same DNA preparation were pipetted thereto (in 3-100 μl). The falcon tubes were firmly closed and agitated for 24 hours in a water bath or breeding room at 24° C. (the optimum transformation rate is at 24° C.-28° C). […]
After the incubation, 200-500 cells per plate on YE plates (full medium) were plated out, and the colony-forming units (CFU) were determined. […] After 5 days at 24° C., the CFU were counted and tested by means of PCR. […]

Structures are written as SMILES.

For `CCN(CC)CCCC(C)Nc1ccnc2cc(Cl)ccc12` (stereo not shown) [chloroquine], the transformation rate is 10.2 10^−8 transformants/CFU.

The values are drawn from patent US20040132027A1, “Screening method for discovering auxiliary agents promoting endocytosis” (priority 2000, published 2004).
